Data as given in patent publication US20240115527A1, “CXCR1/CXCR2 INHIBITORS FOR USE IN TREATING MYELOFIBROSIS” (Icahn School of Medicine at Mount Sinai, priority 2020, published 2024).

Test system: MF CD34+ cells
Assay: Clonal assays of MF CD34+ cells; JAK2V617F allele status of picked hematopoietic colonies
Type: cell-based, human
Protocol: Individual hematopoietic colonies were randomly picked from clonal assays of CD34^+ cells from 6 MF cases and the JAK2V617F allele status was determined.
IL-8 alone increased the absolute numbers of JAK2V617F+ colonies, and the addition of Ladarixin reduced the numbers of JAK2V617F positive colonies stimulated by IL-8 (Tables 1-3).

[1] = MF1 CD34+ cells, ladarixin 10 μM + IL-8 10 ng
[2] = MF1 CD34+ cells, ladarixin 10 μM + IL-8 20 ng
[3] = MF1 CD34+ cells, ladarixin 10 μM + IL-8 50 ng
[4] = MF1 CD34+ cells, ladarixin 10 μM + IL-8 100 ng
[5] = MF1 CD34+ cells, ladarixin 10 μM, no IL-8
[6] = MF1 CD34+ cells, ladarixin 20 μM + IL-8 20 ng
[7] = MF1 CD34+ cells, ladarixin 20 μM, no IL-8
[8] = MF2 CD34+ cells, ladarixin 10 μM + IL-8 10 ng
[9] = MF2 CD34+ cells, ladarixin 10 μM + IL-8 20 ng
[10] = MF2 CD34+ cells, ladarixin 10 μM + IL-8 50 ng
[11] = MF2 CD34+ cells, ladarixin 10 μM + IL-8 100 ng
[12] = MF2 CD34+ cells, ladarixin 10 μM, no IL-8
[13] = MF2 CD34+ cells, ladarixin 20 μM + IL-8 20 ng
[14] = MF2 CD34+ cells, ladarixin 20 μM, no IL-8
[15] = MF3 CD34+ cells, ladarixin 10 μM + IL-8 10 ng
[16] = MF3 CD34+ cells, ladarixin 10 μM + IL-8 20 ng
[17] = MF3 CD34+ cells, ladarixin 10 μM + IL-8 50 ng
[18] = MF3 CD34+ cells, ladarixin 10 μM + IL-8 100 ng
[19] = MF3 CD34+ cells, ladarixin 10 μM, no IL-8
[20] = MF3 CD34+ cells, ladarixin 20 μM + IL-8 20 ng
[21] = MF3 CD34+ cells, ladarixin 20 μM, no IL-8
[22] = MF4 CD34+ cells, ladarixin 10 μM + IL-8 10 ng
[23] = MF4 CD34+ cells, ladarixin 10 μM + IL-8 20 ng
[24] = MF4 CD34+ cells, ladarixin 10 μM + IL-8 50 ng
[25] = MF4 CD34+ cells, ladarixin 10 μM + IL-8 100 ng
[26] = MF4 CD34+ cells, ladarixin 10 μM, no IL-8
[27] = MF4 CD34+ cells, ladarixin 20 μM + IL-8 20 ng
[28] = MF4 CD34+ cells, ladarixin 20 μM, no IL-8
[29] = MF5 CD34+ cells, ladarixin 10 μM + IL-8 10 ng
[30] = MF5 CD34+ cells, ladarixin 10 μM + IL-8 20 ng
[31] = MF5 CD34+ cells, ladarixin 10 μM + IL-8 50 ng
[32] = MF5 CD34+ cells, ladarixin 10 μM + IL-8 100 ng
[33] = MF5 CD34+ cells, ladarixin 10 μM, no IL-8
[34] = MF5 CD34+ cells, ladarixin 20 μM + IL-8 20 ng
[35] = MF5 CD34+ cells, ladarixin 20 μM, no IL-8
[36] = MF6 CD34+ cells, ladarixin 10 μM + IL-8 10 ng
[37] = MF6 CD34+ cells, ladarixin 10 μM + IL-8 20 ng
[38] = MF6 CD34+ cells, ladarixin 10 μM + IL-8 50 ng
[39] = MF6 CD34+ cells, ladarixin 10 μM + IL-8 100 ng
[40] = MF6 CD34+ cells, ladarixin 10 μM, no IL-8
[41] = MF6 CD34+ cells, ladarixin 20 μM + IL-8 20 ng
[42] = MF6 CD34+ cells, ladarixin 20 μM, no IL-8

Structure (SMILES): C[C@@H](C(=O)NS(C)(=O)=O)c1ccc(OS(=O)(=O)C(F)(F)F)cc1 [Ladarixin, R(-)-2-[(4′-trifluoromethanesulfonyloxy)phenyl]-N-methanesulfonyl propionamide]
- number of colonies, Heter (JAK2V617F heterozygous) [1]: 54
- number of colonies, Homo (JAK2V617F homozygous) [1]: 8
- number of colonies, WT (JAK2 wild type) [1]: 0
- number of colonies, Heter (JAK2V617F heterozygous) [2]: 56
- number of colonies, Homo (JAK2V617F homozygous) [2]: 4
- number of colonies, WT (JAK2 wild type) [2]: 4
- number of colonies, Heter (JAK2V617F heterozygous) [3]: 62
- number of colonies, Homo (JAK2V617F homozygous) [3]: 5
- number of colonies, WT (JAK2 wild type) [3]: 0
- number of colonies, Heter (JAK2V617F heterozygous) [4]: 58
- number of colonies, Homo (JAK2V617F homozygous) [4]: 8
- number of colonies, WT (JAK2 wild type) [4]: 0
- number of colonies, Heter (JAK2V617F heterozygous) [5]: 49
- number of colonies, Homo (JAK2V617F homozygous) [5]: 4
- number of colonies, WT (JAK2 wild type) [5]: 0
- number of colonies, Heter (JAK2V617F heterozygous) [6]: 49
- number of colonies, Homo (JAK2V617F homozygous) [6]: 4
- number of colonies, WT (JAK2 wild type) [6]: 9
- number of colonies, Heter (JAK2V617F heterozygous) [7]: 43
- number of colonies, Homo (JAK2V617F homozygous) [7]: 0
- number of colonies, WT (JAK2 wild type) [7]: 16
- number of colonies, Heter (JAK2V617F heterozygous) [8]: 0
- number of colonies, Homo (JAK2V617F homozygous) [8]: 0
- number of colonies, WT (JAK2 wild type) [8]: 49
- number of colonies, Heter (JAK2V617F heterozygous) [9]: 3
- number of colonies, Homo (JAK2V617F homozygous) [9]: 0
- number of colonies, WT (JAK2 wild type) [9]: 35
- number of colonies, Heter (JAK2V617F heterozygous) [10]: 0
- number of colonies, Homo (JAK2V617F homozygous) [10]: 0
- number of colonies, WT (JAK2 wild type) [10]: 44
- number of colonies, Heter (JAK2V617F heterozygous) [11]: 0
- number of colonies, Homo (JAK2V617F homozygous) [11]: 0
- number of colonies, WT (JAK2 wild type) [11]: 46
- number of colonies, Heter (JAK2V617F heterozygous) [12]: 0
- number of colonies, Homo (JAK2V617F homozygous) [12]: 0
- number of colonies, WT (JAK2 wild type) [12]: 36
- number of colonies, Heter (JAK2V617F heterozygous) [13]: 0
- number of colonies, Homo (JAK2V617F homozygous) [13]: 0
- number of colonies, WT (JAK2 wild type) [13]: 47
- number of colonies, Heter (JAK2V617F heterozygous) [14]: 0
- number of colonies, Homo (JAK2V617F homozygous) [14]: 0
- number of colonies, WT (JAK2 wild type) [14]: 44
- number of colonies, Heter (JAK2V617F heterozygous) [15]: 110
- number of colonies, Homo (JAK2V617F homozygous) [15]: 17
- number of colonies, WT (JAK2 wild type) [15]: 8
- number of colonies, Heter (JAK2V617F heterozygous) [16]: 17
- number of colonies, Homo (JAK2V617F homozygous) [16]: 69
- number of colonies, WT (JAK2 wild type) [16]: 51
- number of colonies, Heter (JAK2V617F heterozygous) [17]: 50
- number of colonies, Homo (JAK2V617F homozygous) [17]: 67
- number of colonies, WT (JAK2 wild type) [17]: 34
- number of colonies, Heter (JAK2V617F heterozygous) [18]: 0
- number of colonies, Homo (JAK2V617F homozygous) [18]: 109
- number of colonies, WT (JAK2 wild type) [18]: 49
- number of colonies, Heter (JAK2V617F heterozygous) [19]: 13
- number of colonies, Homo (JAK2V617F homozygous) [19]: 73
- number of colonies, WT (JAK2 wild type) [19]: 13
- number of colonies, Heter (JAK2V617F heterozygous) [20]: 0
- number of colonies, Homo (JAK2V617F homozygous) [20]: 70
- number of colonies, WT (JAK2 wild type) [20]: 53
- number of colonies, Heter (JAK2V617F heterozygous) [21]: 28
- number of colonies, Homo (JAK2V617F homozygous) [21]: 49
- number of colonies, WT (JAK2 wild type) [21]: 35
- number of colonies, Heter (JAK2V617F heterozygous) [22]: 137
- number of colonies, Homo (JAK2V617F homozygous) [22]: 0
- number of colonies, Wild (JAK2 wild type) [22]: 0
- number of colonies, Heter (JAK2V617F heterozygous) [23]: 113
- number of colonies, Homo (JAK2V617F homozygous) [23]: 0
- number of colonies, Wild (JAK2 wild type) [23]: 0
- number of colonies, Heter (JAK2V617F heterozygous) [24]: 137
- number of colonies, Homo (JAK2V617F homozygous) [24]: 0
- number of colonies, Wild (JAK2 wild type) [24]: 0
- number of colonies, Heter (JAK2V617F heterozygous) [25]: 112
- number of colonies, Homo (JAK2V617F homozygous) [25]: 7
- number of colonies, Wild (JAK2 wild type) [25]: 0
- number of colonies, Heter (JAK2V617F heterozygous) [26]: 163
- number of colonies, Homo (JAK2V617F homozygous) [26]: 23
- number of colonies, Wild (JAK2 wild type) [26]: 0
- number of colonies, Heter (JAK2V617F heterozygous) [27]: 134
- number of colonies, Homo (JAK2V617F homozygous) [27]: 0
- number of colonies, Wild (JAK2 wild type) [27]: 0
- number of colonies, Heter (JAK2V617F heterozygous) [28]: 142
- number of colonies, Homo (JAK2V617F homozygous) [28]: 0
- number of colonies, Wild (JAK2 wild type) [28]: 0
- number of colonies, Heter (JAK2V617F heterozygous) [29]: 0
- number of colonies, Homo (JAK2V617F homozygous) [29]: 0
- number of colonies, Wild (JAK2 wild type) [29]: 148
- number of colonies, Heter (JAK2V617F heterozygous) [30]: 0
- number of colonies, Homo (JAK2V617F homozygous) [30]: 0
- number of colonies, Wild (JAK2 wild type) [30]: 138
- number of colonies, Heter (JAK2V617F heterozygous) [31]: 0
- number of colonies, Homo (JAK2V617F homozygous) [31]: 0
- number of colonies, Wild (JAK2 wild type) [31]: 151
- number of colonies, Heter (JAK2V617F heterozygous) [32]: 0
- number of colonies, Homo (JAK2V617F homozygous) [32]: 0
- number of colonies, Wild (JAK2 wild type) [32]: 144
- number of colonies, Heter (JAK2V617F heterozygous) [33]: 0
- number of colonies, Homo (JAK2V617F homozygous) [33]: 0
- number of colonies, Wild (JAK2 wild type) [33]: 107
- number of colonies, Heter (JAK2V617F heterozygous) [34]: 0
- number of colonies, Homo (JAK2V617F homozygous) [34]: 0
- number of colonies, Wild (JAK2 wild type) [34]: 131
- number of colonies, Heter (JAK2V617F heterozygous) [35]: 0
- number of colonies, Homo (JAK2V617F homozygous) [35]: 0
- number of colonies, Wild (JAK2 wild type) [35]: 141
- number of colonies, Heter (JAK2V617F heterozygous) [36]: 0
- number of colonies, Homo (JAK2V617F homozygous) [36]: 0
- number of colonies, Wild (JAK2 wild type) [36]: 119
- number of colonies, Heter (JAK2V617F heterozygous) [37]: 0
- number of colonies, Homo (JAK2V617F homozygous) [37]: 0
- number of colonies, Wild (JAK2 wild type) [37]: 121
- number of colonies, Heter (JAK2V617F heterozygous) [38]: 0
- number of colonies, Homo (JAK2V617F homozygous) [38]: 0
- number of colonies, Wild (JAK2 wild type) [38]: 122
- number of colonies, Heter (JAK2V617F heterozygous) [39]: 0
- number of colonies, Homo (JAK2V617F homozygous) [39]: 0
- number of colonies, Wild (JAK2 wild type) [39]: 119
- number of colonies, Heter (JAK2V617F heterozygous) [40]: 0
- number of colonies, Homo (JAK2V617F homozygous) [40]: 0
- number of colonies, Wild (JAK2 wild type) [40]: 119
- number of colonies, Heter (JAK2V617F heterozygous) [41]: 0
- number of colonies, Homo (JAK2V617F homozygous) [41]: 0
- number of colonies, Wild (JAK2 wild type) [41]: 106
- number of colonies, Heter (JAK2V617F heterozygous) [42]: 0
- number of colonies, Homo (JAK2V617F homozygous) [42]: 0
- number of colonies, Wild (JAK2 wild type) [42]: 105
- numbers of JAK2V617F positive colonies stimulated by IL-8 (addition of Ladarixin, 6 MF cases): reduced
